Results as given in ChEMBL document CHEMBL1148116, “Thorectandrols C, D, and E, new sesterterpenes from the marine sponge Thorectandra sp” (J Nat Prod, 2002).
≈ marks a conversion by molar mass, not a printed value. Calls of active or inactive are those of the source. The calls are words filed in the database; no cut-off is given here.

Key:
Type in all cases: functional, cell-based
MCF7 [1] = experiment: Cytotoxicity against human MCF7 cells at 100 ug/mL
SNB-19 [2] = experiment: Cytotoxicity against human SNB19 cells at 100 ug/mL
COLO 205 [3] = experiment: Cytotoxicity against human COLO205 cells at 100 ug/mL
KM12 [4] = experiment: Cytotoxicity against human KM12 cells at 100 ug/mL
MOLT-4 [5] = experiment: Cytotoxicity against human MOLT4 cells at 100 ug/mL
NCI-H460 [6] = experiment: Cytotoxicity against human H460 cells at 100 ug/mL
A549 [7] = experiment: Cytotoxicity against human A549 cells at 100 ug/mL
LOX IMVI [8] = experiment: Cytotoxicity against human LOXIMVI cells at 100 ug/mL
Malme-3M [9] = experiment: Cytotoxicity against human MALME-3M cells at 100 ug/mL
OVCAR-3 [10] = experiment: Cytotoxicity against human OVCAR-3 cells at 100 ug/mL
IGROV-1 [11] = experiment: Cytotoxicity against human IGROV1 cells at 100 ug/mL
786-0 = experiment: Cytotoxicity against human 786-O cells at 100 ug/mL
SNB-19 [12] = experiment: Cytotoxicity against human SNB19 cells
COLO 205 [13] = experiment: Cytotoxicity against human COLO205 cells
KM12 [14] = experiment: Cytotoxicity against human KM12 cells
MOLT-4 [15] = experiment: Cytotoxicity against human MOLT4 cells
NCI-H460 [16] = experiment: Cytotoxicity against human H460 cells
A549 [17] = experiment: Cytotoxicity against human A549 cells
LOX IMVI [18] = experiment: Cytotoxicity against human LOXIMVI cells
Malme-3M [19] = experiment: Cytotoxicity against human MALME-3M cells
OVCAR-3 [20] = experiment: Cytotoxicity against human OVCAR-3 cells
IGROV-1 [21] = experiment: Cytotoxicity against human IGROV1 cells
[22] = Cytotoxicity against human 786-O cells; details: 786-0
MCF7 [23] = experiment: Cytotoxicity against human MCF7 cells
[24] = Homo sapiens, MCF7, read-out: IC50

C=C1CCC[C@H]2[C@](C)(CC/C(C)=C/C[C@@H](O)C3=CC(=O)OC3)[C@@H](C)[C@H](O)C[C@]12C
Activity (MCF7 [1]): inactive
Activity (SNB-19 [2]): inactive
Activity (COLO 205 [3]): inactive
Activity (KM12 [4]): inactive
Activity (MOLT-4 [5]): inactive
Activity (NCI-H460 [6]): inactive
Activity (A549 [7]): inactive
Activity (LOX IMVI [8]): inactive
Activity (Malme-3M [9]): inactive
Activity (OVCAR-3 [10]): inactive
Activity (IGROV-1 [11]): inactive
Activity (786-0): inactive

CC(C)=CC1C/C(=C/CC/C(C)=C/CC/C(C)=C/C[C@@H](O)C2=CC(=O)OC2)C(=O)O1 (stereo not given in full)
Activity (MCF7 [1]): inactive
Activity (SNB-19 [2]): inactive
Activity (COLO 205 [3]): inactive
Activity (KM12 [4]): inactive
Activity (MOLT-4 [5]): inactive
Activity (NCI-H460 [6]): inactive
Activity (A549 [7]): inactive
Activity (LOX IMVI [8]): inactive
Activity (Malme-3M [9]): inactive
Activity (OVCAR-3 [10]): inactive
Activity (IGROV-1 [11]): inactive
Activity (786-0): inactive

CC(C)=CC1C/C(=C\CC/C(C)=C/CC/C(C)=C/CCC2=CC(=O)OC2)C(=O)O1 (stereo not given)
Activity (MCF7 [1]): inactive
Activity (SNB-19 [2]): inactive
Activity (COLO 205 [3]): inactive
Activity (KM12 [4]): inactive
Activity (MOLT-4 [5]): inactive
Activity (NCI-H460 [6]): inactive
Activity (A549 [7]): inactive
Activity (LOX IMVI [8]): inactive
Activity (Malme-3M [9]): inactive
Activity (OVCAR-3 [10]): inactive
Activity (IGROV-1 [11]): inactive
Activity (786-0): inactive

C=C1CCC[C@H]2[C@](C)(CC/C(C)=C/C=C/C3=CC(=O)OC3O)[C@@H](C)CC[C@]12C (stereo not given in full) [PALAUOLIDE]
IC50 (SNB-19 [12]): 52.1 µg/mL (≈ 135 µM)
IC50 (COLO 205 [13]): 23.6 µg/mL (≈ 61.4 µM)
IC50 (KM12 [14]): 14.4 µg/mL (≈ 37.4 µM)
IC50 (MOLT-4 [15]): 43.5 µg/mL (≈ 113 µM)
IC50 (NCI-H460 [16]): 10.1 µg/mL (≈ 26.3 µM)
IC50 (A549 [17]): 30 µg/mL (≈ 78 µM)
IC50 (LOX IMVI [18]): 51.2 µg/mL (≈ 133 µM)
IC50 (Malme-3M [19]): 37 µg/mL (≈ 96.2 µM)
IC50 (OVCAR-3 [20]): 30 µg/mL (≈ 78 µM)
IC50 (IGROV-1 [21]): 7.7 µg/mL (≈ 20 µM)
IC50 [22]: 53 µg/mL (≈ 138 µM)
IC50 (MCF7 [23]; [24]): > 100 µg/mL

C=C1CCC[C@@H]2[C@@](C)(CC/C(C)=C/C[C@@H](O)C3=CC(=O)OC3O)[C@@H](C)CC[C@@]12C (stereo not given in full) [PALAUOLOL]
IC50 (SNB-19 [12]): 2.1 µg/mL (≈ 5.22 µM)
IC50 (COLO 205 [13]): 1.1 µg/mL (≈ 2.73 µM)
IC50 (KM12 [14]): 1.8 µg/mL (≈ 4.47 µM)
IC50 (MOLT-4 [15]): 0.6 µg/mL (≈ 1.49 µM)
IC50 (NCI-H460 [16]): 1.3 µg/mL (≈ 3.23 µM)
IC50 (A549 [17]): > 100 µg/mL
IC50 (LOX IMVI [18]): 2.4 µg/mL (≈ 5.96 µM)
IC50 (Malme-3M [19]): 0.5 µg/mL (≈ 1.24 µM)
IC50 (OVCAR-3 [20]): 2.2 µg/mL (≈ 5.46 µM)
IC50 (IGROV-1 [21]): 1.5 µg/mL (≈ 3.73 µM)
IC50 [22]: 1.4 µg/mL (≈ 3.48 µM)
IC50 (MCF7 [23]; [24]): 7 µg/mL (≈ 17.4 µM)

C=C1CCC[C@H]2[C@](C)(CC/C(C)=C/C[C@H]3OC(=O)C=C3CO)[C@@H](C)CC[C@]12C [THORECTANDROL A]
IC50 (SNB-19 [12]): 40 µg/mL (≈ 103 µM)
IC50 (COLO 205 [13]): 37 µg/mL (≈ 95.7 µM)
IC50 (KM12 [14]): 40 µg/mL (≈ 103 µM)
IC50 (MOLT-4 [15]): 32 µg/mL (≈ 82.8 µM)
IC50 (NCI-H460 [16]): 35 µg/mL (≈ 90.5 µM)
IC50 (A549 [17]): 35 µg/mL (≈ 90.5 µM)
IC50 (LOX IMVI [18]): 35 µg/mL (≈ 90.5 µM)
IC50 (Malme-3M [19]): 40 µg/mL (≈ 103 µM)
IC50 (OVCAR-3 [20]): 35 µg/mL (≈ 90.5 µM)
IC50 (IGROV-1 [21]): 31 µg/mL (≈ 80.2 µM)
IC50 [22]: 30 µg/mL (≈ 77.6 µM)
IC50 (MCF7 [23]; [24]): 40 µg/mL (≈ 103 µM)

C=C1CCC[C@H]2[C@@](CC/C(C)=C/C[C@H]3OC(=O)CC3CO)(COC(C)=O)[C@@H](C)CC[C@]12C (stereo not given in full) [THORECTANDROL B]
IC50 (SNB-19 [12]): 35 µg/mL (≈ 78.4 µM)
IC50 (COLO 205 [13]): 23.6 µg/mL (≈ 52.8 µM)
IC50 (KM12 [14]): 94 µg/mL (≈ 210 µM)
IC50 (MOLT-4 [15]): 19 µg/mL (≈ 42.5 µM)
IC50 (NCI-H460 [16]): 96 µg/mL (≈ 215 µM)
IC50 (A549 [17]): 35 µg/mL (≈ 78.4 µM)
IC50 (LOX IMVI [18]): 100 µg/mL (≈ 224 µM)
IC50 (Malme-3M [19]): 30 µg/mL (≈ 67.2 µM)
IC50 (OVCAR-3 [20]): 70 µg/mL (≈ 157 µM)
IC50 (IGROV-1 [21]): > 100 µg/mL
IC50 [22]: 35 µg/mL (≈ 78.4 µM)
IC50 (MCF7 [23]; [24]): 30 µg/mL (≈ 67.2 µM)

C=C1CCC[C@H]2[C@](C)(CC/C(C)=C/C[C@@H](O)C3=CC(=O)OC3)[C@@H](C)[C@H](OC(C)=O)C[C@]12C [THORECTANDROL C]
IC50 (A549 [17]): 30 µg/mL (≈ 67.5 µM)
Activity (LOX IMVI [18]): inactive
IC50 (Malme-3M [19]): 30 µg/mL (≈ 67.5 µM)
Activity (OVCAR-3 [20]): inactive
IC50 [22]: 30 µg/mL (≈ 67.5 µM)
IC50 (MCF7 [23]; mcf7): Not Active
